Assay results reported in ChEMBL document CHEMBL1772986, “Scaffold-hopping strategy: synthesis and biological evaluation of 5,6-fused bicyclic heteroaromatics to identify orally bioavailable anticancer agents” (J Med Chem, 2011).
Values after ≈ are worked out from the molar mass of the structure shown. Active and inactive are the calls of the source. No cut-off for these calls is given here.

Columns and labels:
KB = assay: Cytotoxicity against human KB cells after 72 hrs by methylene blue dye assay; type: functional, cell-based
MKN-45 = assay: Cytotoxicity against human MKN45 cells after 72 hrs by methylene blue dye assay; type: functional, cell-based; conditions: MKN-45, 72 h
[1] = Metabolic stability in human liver microsomes assessed as compound remaining at 1 uM after 30 mins; type: ADME, Microsome; conditions: read-out: Stability
[2] = Aqueous solubility in distilled water at 2 mg after 24 hrs; type: physicochemical
[3] = Solubility of the compound in phosphate buffer at 2 mg at pH 7.4 after 24 hrs; type: physicochemical
[4] = Inhibition of tubulin polymerization measured every 30 seconds for 30 mins
Rattus norvegicus [5] = assay: AUC in Sprague-Dawley rat at 5 mg/kg, iv; type: ADME, organism-based, Plasma; design: dose 5 mg/kg, route intravenous; conditions: in vivo
Rattus norvegicus [6] = assay: Volume of distribution at steady state in Sprague-Dawley rat at 5 mg/kg, iv; type: ADME, organism-based; design: dose 5 mg/kg, route intravenous; conditions: in vivo
Rattus norvegicus [7] = assay: Half life in Sprague-Dawley rat plasma at 5 mg/kg, iv; type: ADME, organism-based; design: dose 5 mg/kg, route intravenous; conditions: in vivo
[8] = Half life in Sprague-Dawley rat plasma at 20 mg/kg, po; type: ADME, organism-based; design: dose 20 mg/kg, route oral
[9] = Cmax in Sprague-Dawley rat at 20 mg/kg, po; type: ADME, organism-based; design: dose 20 mg/kg, route oral; conditions: in vivo
[10] = Tmax in Sprague-Dawley rat at 20 mg/kg, po; type: ADME, organism-based; design: dose 20 mg/kg, route oral; conditions: in vivo
[11] = AUC in Sprague-Dawley rat at 20 mg/kg, po; type: ADME, organism-based; design: dose 20 mg/kg, route oral; conditions: plasma
[12] = Oral bioavailability in Sprague-Dawley rat at 20 mg/kg; type: ADME, organism-based; conditions: in vivo

## COc1ccn2c(C(=O)c3cc(OC)c(OC)c(OC)c3)c(C)cc2c1
KB
  IC50: > 1000 nM
MKN-45
  IC50: 354 nM

## COc1ccc2c(C(=O)c3cc(OC)c(OC)c(OC)c3)n[nH]c2c1
KB
  IC50: 70 nM
MKN-45
  IC50: 95 nM

## CCOc1ccc2c(C(=O)c3cc(OC)c(OC)c(OC)c3)c[nH]c2n1
KB
  IC50: 12 nM
MKN-45
  IC50: 14 nM
[1]
  remaining at 0.5 h, 1 µM: 96.4%
[2]
  solubility at 24 h: < 2 µg/mL
[3]
  solubility at 24 h: < 1 µg/mL
[4]
  inhibition: Active

## COc1ccc2c(C(=O)c3cc(OC)c(OC)c(OC)c3)ccn2c1
KB
  IC50: 284 nM
MKN-45
  IC50: 80 nM

## COc1ccc2c(C(=O)c3cc(OC)c(OC)c(OC)c3)c[nH]c2n1
KB
  IC50: 20 nM
MKN-45
  IC50: 16 nM
[1]
  remaining at 0.5 h, 1 µM: 88.3%
[2]
  solubility at 24 h: < 2 µg/mL
[3]
  solubility at 24 h: < 1 µg/mL

## COc1ncc2c(C(=O)c3cc(OC)c(OC)c(OC)c3)c[nH]c2n1
KB
  IC50: 284 nM
MKN-45
  IC50: 80 nM

## COc1ccc2c(C(=O)c3cc(OC)c(OC)c(OC)c3)c[nH]c2c1
KB
  IC50: 6 nM
MKN-45
  IC50: 5 nM
[1]
  remaining at 0.5 h, 1 µM: 54.1%
[2]
  solubility at 24 h: 0.9 µg/mL (≈ 2.64 µM)
[3]
  solubility at 24 h: 0.61 µg/mL (≈ 1.79 µM)
Rattus norvegicus [5]
  AUC: 2712 ng·h/mL
Rattus norvegicus [6]
  Vdss: 1.6 L/kg
Rattus norvegicus [7]
  t1/2: 54 min
[8]
  half-life: 168 min
[9]
  Cmax: 179 ng/mL
[10]
  Tmax: 4 h
[11]
  AUC: 1310 ng·h/mL
[12]
  bioavailability: 9.7%

## COc1ccc2c(C(=O)c3cc(OC)c(OC)c(OC)c3)cnn2n1
KB
  IC50: > 1000 nM
MKN-45
  IC50: > 1000 nM
[1]
  remaining at 0.5 h, 1 µM: 99.6%

## COc1cc(C(=O)c2c[nH]c3nc(C)ccc23)cc(OC)c1OC.Cl
[2]
  solubility at 24 h: 91.3 µg/mL
[3]
  solubility at 24 h: 79.6 µg/mL

## COc1cc(C(=O)c2c[nH]c3nc(C)ccc23)cc(OC)c1OC [listing 1 of 2 here]
[4]
  inhibition: Active

## COc1ccc2c(C(=O)c3cc(OC)c(OC)c(OC)c3)c(C)cn2c1
KB
  IC50: 31 nM
MKN-45
  IC50: 26 nM
[1]
  remaining at 0.5 h, 1 µM: 35.4%
[4]
  inhibition: Active

## COc1cc(C(=O)c2c[nH]c3nc(C)ccc23)cc(OC)c1OC [listing 2 of 2 here]
[2]
  solubility at 24 h: 14.3 µg/mL (≈ 43.8 µM)
[3]
  solubility at 24 h: 8.3 µg/mL (≈ 25.4 µM)
Rattus norvegicus [5]
  AUC: 2653 ng·h/mL
Rattus norvegicus [6]
  Vdss: 0.7 L/kg
Rattus norvegicus [7]
  t1/2: 24 min
[8]
  half-life: 78 min
[9]
  Cmax: 3750 ng/mL
[10]
  Tmax: 0.5 h
[11]
  AUC: 4640 ng·h/mL
[12]
  bioavailability: 35%

## COc1ccn2c(C(=O)c3cc(OC)c(OC)c(OC)c3)cnc2c1
KB
  IC50: 770 nM
MKN-45
  IC50: 730 nM
